Data taken from ChEMBL document CHEMBL3046178, “Quantitative Structure-Activity Relationships of Larvicidal N-[5-(Substituted phenyl)-1, 3, 4-thiadiazol-2-yl]-benzamides in the Inhibition of N-Acetylglucosamine Incorporation into a Cultured Integument System” (J Pestic Sci, 1996).

Experiments:
[1] = system: Chilo suppressalis; experiment: Insecticidal activity against Chilo suppressalis (rice stem borer) third-instar larvae assessed as mortality at pI50 after 5 days; type: functional
[2] = system: Chilo suppressalis; experiment: Insecticidal activity against Chilo suppressalis (rice stem borer) third-instar larvae assessed as mortality after 5 days; type: functional
[3] = system: Chilo suppressalis; experiment: Inhibition of chitin synthesis in 20-hydroxyecdysone-stimulated Chilo suppressalis (rice stem borer) larval integument assessed as inhibition of N-acetyl-{1-14C]-glucosamine at pI50 after 72 hr by liquid scintillation counting; type: functional
[4] = 1-octanol-water partition co-efficient, log P of the compound; type: physicochemical
[5] = system: Chilo suppressalis; experiment: Insecticidal activity against Chilo suppressalis (rice stem borer) third-instar larvae assessed as mortality at pI50 after 5 days in presence of piperonyl butoxide; type: functional; set-up: concentration or dose not given beside the values
[6] = system: Chilo suppressalis; experiment: Insecticidal activity against Chilo suppressalis (rice stem borer) third-instar larvae assessed as mortality after 5 days in presence of piperonyl butoxide; type: functional

## O=C(Nc1nnc(-c2ccc(Cl)cc2)s1)c1c(Cl)cccc1Cl
[1]
  mortality: 5%
[2]
  pLD50: <5

## CCN(CC)c1ccccc1C(=O)Nc1nnc(-c2ccc(Cl)cc2)s1
[1]
  mortality: 0%
[2]
  pLD50: <5
[3]
  inhibition (INH): 8%

## CCOc1ccccc1C(=O)Nc1nnc(-c2ccc(Cl)cc2)s1
[1]
  mortality: 10%
[2]
  pLD50: <5.6
[3]
  inhibition (INH): 23%

## O=C(Nc1nnc(-c2ccc(Cl)cc2)s1)c1ccccc1I
[1]
  mortality: 5%
[2]
  pLD50: <4.6
[3]
  inhibition (INH): 17%

## COc1cccc(OC)c1C(=O)Nc1nnc(-c2ccc([N+](=O)[O-])cc2)s1
[4]
  logP: 2.54
[5]
  mortality: 0%
[6]
  pLD50: <5

## O=C(Nc1nnc(-c2ccc(Cl)cc2)s1)c1c(F)cccc1F
[1]
  mortality: 0%
[2]
  pLD50: <4.6
[3]
  inhibition (INH): 42%

## COc1cccc(OC)c1C(=O)Nc1nnc(-c2ccc(Cl)cc2)s1
[2]
  pLD50: 5.96
[4]
  logP: 3.96
[6]
  pLD50: <5.96

## O=C(Nc1nnc(-c2ccc(Cl)cc2)s1)c1ccccc1Cl
[1]
  mortality: 41%
[2]
  pLD50: <4.6
[3]
  inhibition (INH): 37%

## COc1cccc(OC)c1C(=O)Nc1nnc(-c2ccc(F)cc2)s1
[4]
  logP: 3.5
[5]
  mortality: 14%
[6]
  pLD50: <5

## O=C(Nc1nnc(-c2ccc(Cl)cc2)s1)c1ccccc1Br
[1]
  mortality: 0%
[2]
  pLD50: <4.6
[3]
  inhibition (INH): 32%

## COc1cccc(OC)c1C(=O)Nc1nnc(-c2ccc(C#N)cc2)s1
[4]
  logP: 3.14

## O=C(Nc1nnc(-c2ccc(Cl)cc2)s1)c1ccccc1[N+](=O)[O-]
[1]
  mortality: 0%
[2]
  pLD50: <4.6
[3]
  inhibition (INH): 0%

## O=C(Nc1nnc(-c2ccc(Cl)cc2)s1)c1ccccc1
[1]
  mortality: 0%
[2]
  pLD50: <5.6
[3]
  inhibition (INH): 10%

## O=C(Nc1nnc(-c2ccc(Cl)cc2)s1)c1ccccc1C(F)(F)F
[1]
  mortality: 0%
[2]
  pLD50: <4.6
[3]
  inhibition (INH): 7%

## COc1cccc(OC)c1C(=O)Nc1nnc(-c2ccc(Br)cc2)s1
[4]
  logP: 3.96
[6]
  pLD50: 5.57

## Cc1cccc(C)c1C(=O)Nc1nnc(-c2ccc(Cl)cc2)s1
[2]
  pLD50: 5.48

## CCOc1ccc(-c2nnc(NC(=O)c3c(OC)cccc3OC)s2)cc1
[4]
  logP: 3.75
[5]
  mortality: 6%
[6]
  pLD50: <5

## O=C(Nc1nnc(-c2ccc(Cl)cc2)s1)c1ccccc1F
[1]
  mortality: 0%
[2]
  pLD50: <4.6

## Cc1ccccc1C(=O)Nc1nnc(-c2ccc(Cl)cc2)s1
[1]
  mortality: 0%
[2]
  pLD50: <4.6

## COc1ccc(-c2nnc(NC(=O)c3c(OC)cccc3OC)s2)cc1
[4]
  logP: 3.56
[5]
  mortality: 0%
[6]
  pLD50: <5

## COc1ccccc1C(=O)Nc1nnc(-c2ccc(Cl)cc2)s1
[2]
  pLD50: 5.96

## COc1cccc(OC)c1C(=O)Nc1nnc(-c2ccccc2)s1
[4]
  logP: 3.5
[5]
  mortality: 0%
[6]
  pLD50: <5

## COc1cccc(OC)c1C(=O)Nc1nnc(-c2ccc(C)cc2)s1
[4]
  logP: 3.85
[6]
  pLD50: 5

## O=C(NC(=O)c1c(F)cccc1F)Nc1ccc(Cl)cc1 [DIFLUBENZURON]
[6]
  pLD50: 6.64
